{"source": "patent US20240122890A1", "about": "“USE OF EXOGENOUS KETONE ESTERS TO INDUCE WEIGHT LOSS IN MAMMALS” (Buck Institute for Research on Aging, priority 2021, published 2024)", "key": {"[1]": {"experiment": "Body weight of mice swapped to a diet containing 20% KE", "type": "in vivo, C57/BL6 mice", "conditions": "diet containing 20% KE (by weight); n=5 female", "source_text": "Male (n=10) and female (n=10) C57/BL6 mice were fed control diet for one week. The next week n=5 male and n=5 female mice were swapped to a diet containing 20% KE (by weight) mixed into a custom-made diet."}, "[2]": {"experiment": "Waking body weight with daily ketone ester consumption in a person with obesity", "type": "in vivo, human", "conditions": "for Weight (waking body weight): daily 25 g KE", "experimental": "This example describes the effect of daily ketone ester consumption in a person with obesity (BMI=42.5 kg/m^2). The subject began consuming one 25 g serving of KE each morning on Nov. 15, 2021, and maintained daily consumption each morning for 7 weeks. The KE was in a commercially available consumer-friendly beverage formulation (Juvenescence, NJ, USA). Body weight was recorded by the subject after waking each morning (see, e.g., Table 1 and FIG. 3). […] The highest body weight in this period was on Nov. 15, 2021 (288 lbs), and the lowest was on Day Dec. 21, 2021 (254 lbs), giving a total weight loss of 34 lbs (11.8% of starting body mass)"}, "[3]": {"conditions": "25 g KE each morning, highest to lowest body weight"}}}
{"smiles": "CCCCCC(=O)OCC[C@@H](C)OC(=O)CCCCC", "note": "[KE, bis hexanoyl (R)-1,3-butanediol]", "values": [{"measurement": "deaths", "setting": "[1]", "value": "Two female animals died due to rapid weight loss"}, {"measurement": "lowest body weight in this period", "setting": "[2]; 25 g KE each morning, Dec. 21, 2021", "value": 254, "unit": "lbs"}, {"measurement": "highest body weight in this period", "setting": "[2]; 25 g KE each morning, Nov. 15, 2021", "value": 288, "unit": "lbs"}, {"measurement": "total weight loss", "setting": "[2]; [3]", "value": 34, "unit": "lbs"}, {"measurement": "total weight loss, % of starting body mass", "setting": "[2]; [3]", "value": 11.8, "unit": "%"}, {"measurement": "Weight (waking body weight)", "setting": "[2]; 1 Dec. 2021", "value": 272.5, "unit": "lbs"}, {"measurement": "Weight (waking body weight)", "setting": "[2]; 1 Jan. 2022", "value": 258, "unit": "lbs"}, {"measurement": "Weight (waking body weight)", "setting": "[2]; 2 Dec. 2021", "value": 272.5, "unit": "lbs"}, {"measurement": "Weight (waking body weight)", "setting": "[2]; 2 Jan. 2022", "value": 257, "unit": "lbs"}, {"measurement": "Weight (waking body weight)", "setting": "[2]; 3 Dec. 2021", "value": 272, "unit": "lbs"}, {"measurement": "Weight (waking body weight)", "setting": "[2]; 3 Jan. 2022", "value": 255.5, "unit": "lbs"}, {"measurement": "Weight (waking body weight)", "setting": "[2]; 4 Dec. 2021", "value": 271, "unit": "lbs"}, {"measurement": "Weight (waking body weight)", "setting": "[2]; 4 Jan. 2022", "value": 255.5, "unit": "lbs"}, {"measurement": "Weight (waking body weight)", "setting": "[2]; 5 Dec. 2021", "value": 270, "unit": "lbs"}, {"measurement": "Weight (waking body weight)", "setting": "[2]; 5 Jan. 2022", "value": 256, "unit": "lbs"}, {"measurement": "Weight (waking body weight)", "setting": "[2]; 6 Dec. 2021", "value": 268.5, "unit": "lbs"}, {"measurement": "Weight (waking body weight)", "setting": "[2]; 7 Dec. 2021", "value": 267.5, "unit": "lbs"}, {"measurement": "Weight (waking body weight)", "setting": "[2]; 8 Dec. 2021", "value": 267, "unit": "lbs"}, {"measurement": "Weight (waking body weight)", "setting": "[2]; 9 Dec. 2021", "value": 266, "unit": "lbs"}, {"measurement": "Weight (waking body weight)", "setting": "[2]; 10 Dec. 2021", "value": 265.5, "unit": "lbs"}, {"measurement": "Weight (waking body weight)", "setting": "[2]; 11 Dec. 2021", "value": 264.5, "unit": "lbs"}, {"measurement": "Weight (waking body weight)", "setting": "[2]; 12 Dec. 2021", "value": 264, "unit": "lbs"}, {"measurement": "Weight (waking body weight)", "setting": "[2]; 13 Dec. 2021", "value": 262.5, "unit": "lbs"}, {"measurement": "Weight (waking body weight)", "setting": "[2]; 14 Dec. 2021", "value": 261.5, "unit": "lbs"}, {"measurement": "Weight (waking body weight)", "setting": "[2]; 15 Dec. 2021", "value": 260.5, "unit": "lbs"}, {"measurement": "Weight (waking body weight)", "setting": "[2]; 15 Nov. 2021", "value": 288, "unit": "lbs"}, {"measurement": "Weight (waking body weight)", "setting": "[2]; 16 Dec. 2021", "value": 258, "unit": "lbs"}, {"measurement": "Weight (waking body weight)", "setting": "[2]; 16 Nov. 2021", "value": 286.5, "unit": "lbs"}, {"measurement": "Weight (waking body weight)", "setting": "[2]; 17 Dec. 2021", "value": 256, "unit": "lbs"}, {"measurement": "Weight (waking body weight)", "setting": "[2]; 17 Nov. 2021", "value": 284, "unit": "lbs"}, {"measurement": "Weight (waking body weight)", "setting": "[2]; 18 Dec. 2021", "value": 256, "unit": "lbs"}, {"measurement": "Weight (waking body weight)", "setting": "[2]; 18 Nov. 2021", "value": 283, "unit": "lbs"}, {"measurement": "Weight (waking body weight)", "setting": "[2]; 19 Dec. 2021", "value": 255, "unit": "lbs"}, {"measurement": "Weight (waking body weight)", "setting": "[2]; 19 Nov. 2021", "value": 283, "unit": "lbs"}, {"measurement": "Weight (waking body weight)", "setting": "[2]; 20 Dec. 2021", "value": 255, "unit": "lbs"}, {"measurement": "Weight (waking body weight)", "setting": "[2]; 20 Nov. 2021", "value": 282.5, "unit": "lbs"}, {"measurement": "Weight (waking body weight)", "setting": "[2]; 21 Dec. 2021", "value": 254, "unit": "lbs"}, {"measurement": "Weight (waking body weight)", "setting": "[2]; 21 Nov. 2021", "value": 281.5, "unit": "lbs"}, {"measurement": "Weight (waking body weight)", "setting": "[2]; 22 Dec. 2021", "value": 256, "unit": "lbs"}, {"measurement": "Weight (waking body weight)", "setting": "[2]; 22 Nov. 2021", "value": 279.5, "unit": "lbs"}, {"measurement": "Weight (waking body weight)", "setting": "[2]; 23 Dec. 2021", "value": 258, "unit": "lbs"}, {"measurement": "Weight (waking body weight)", "setting": "[2]; 23 Nov. 2021", "value": 279, "unit": "lbs"}, {"measurement": "Weight (waking body weight)", "setting": "[2]; 24 Dec. 2021", "value": 257, "unit": "lbs"}, {"measurement": "Weight (waking body weight)", "setting": "[2]; 24 Nov. 2021", "value": 278, "unit": "lbs"}, {"measurement": "Weight (waking body weight)", "setting": "[2]; 25 Dec. 2021", "value": 258, "unit": "lbs"}, {"measurement": "Weight (waking body weight)", "setting": "[2]; 25 Nov. 2021 (first line of this date)", "value": 278, "unit": "lbs"}, {"measurement": "Weight (waking body weight)", "setting": "[2]; 25 Nov. 2021 (second line of this date)", "value": 276.5, "unit": "lbs"}, {"measurement": "Weight (waking body weight)", "setting": "[2]; 26 Dec. 2021", "value": 260, "unit": "lbs"}, {"measurement": "Weight (waking body weight)", "setting": "[2]; 26 Nov. 2021", "value": 275, "unit": "lbs"}, {"measurement": "Weight (waking body weight)", "setting": "[2]; 27 Dec. 2021", "value": 258, "unit": "lbs"}, {"measurement": "Weight (waking body weight)", "setting": "[2]; 27 Nov. 2021", "value": 275, "unit": "lbs"}, {"measurement": "Weight (waking body weight)", "setting": "[2]; 28 Dec. 2021", "value": 257, "unit": "lbs"}, {"measurement": "Weight (waking body weight)", "setting": "[2]; 28 Nov. 2021", "value": 273.5, "unit": "lbs"}, {"measurement": "Weight (waking body weight)", "setting": "[2]; 29 Dec. 2021", "value": 258, "unit": "lbs"}, {"measurement": "Weight (waking body weight)", "setting": "[2]; 29 Nov. 2021", "value": 273, "unit": "lbs"}, {"measurement": "Weight (waking body weight)", "setting": "[2]; 30 Dec. 2021", "value": 260.5, "unit": "lbs"}, {"measurement": "Weight (waking body weight)", "setting": "[2]; 30 Nov. 2021", "value": 273, "unit": "lbs"}, {"measurement": "Weight (waking body weight)", "setting": "[2]; 31 Dec. 2021", "value": 260, "unit": "lbs"}]}
